Source: patent publication US5441974A, “Phenyl amidines lactones useful as platelet aggregation inhibitors” (G. D. Searle & Co., priority 1994, dated 1995)
Where a name gives a salt, the structure may show the parent alone.

Test system: platelet aggregation
Assay: In-Vitro Platelet Aggregation in PRP (ADP-induced)
Format: cell-based
Details: dog platelet-rich plasma, ADP 50 μm final; for IC50: 1 min preincubation at 37° C.; for % Inhibition: Test Concentration 1 × 10^-5
Method: Compounds of the invention were evaluated by an in vivo assay to determine compound activity as an inhibitors of platelet aggregation.
Healthy male or female dogs were fasted for 8 hours prior to drawing blood; then 30 mL whole blood was collected using a butterfly needle and 30 cc plastic syringe with 3 ml of 0.129M buffered sodium citrate (3.8%). The syringe was rotated carefully as blood was drawn to mix the citrate. Platelet-rich plasma (PRP) was prepared by centrifugation at 975×g for 3.17 minutes at room temperature, allowing the centrifuge to coast to a stop without braking. The PRP was removed from the blood with a plastic pipette and placed in a plastic capped, 50 ml Corning conical sterile centrifuge tube which was held at room temperature. Platelet poor plasma (PPP) was prepared by centrifuging the remaining blood at 2000×g for 15 minutes at room temperature allowing the centrifuge to coast to a stop without braking. The PRP was adjusted with PPP to a count of 2-3×10^8 platelets per ml. 400 μL of the PRP preparation and 50 μL of the compound to be tested or saline were preincubated for 1 minute at 37° C. in a BioData aggregometer (BioData, Horsham, Pa.). 50 μL of adenosine 5'diphosphate (ADP) (50 μm final concentration) was added to the cuvettes and the aggregation was monitored for 1 minute. All compounds are tested in duplicate. Results are calculated as follows:
Percent of control=[(maximal OD minus initial OD of compound) divided by (maximal OD minus initial OD of control saline)]×100. The % inhibition=100 - (percent of control).

[1] = Canis lupus familiaris, Platelet

SMILES	IC50 [1] [nM]	% Inhibition [%]	IC50 [nM]
N=C(N)c1ccc(CCCCC(=O)NC2CC(=O)Oc3ccccc32)cc1 (racemic) [Example 2, (±)-4-(Aminoiminomethyl)-N-(3,4-dihydro-2-oxo-2H-1-benzopyran-4-yl) benzenepentanamide]	2000		
COc1ccc2c(c1)OC(=O)CC2NC(=O)CCCCc1ccc(C(=N)N)cc1 (racemic) [Example 3, (±)-4-(Aminoiminomethyl)-N-(3,4-dihydro-7-methoxy-2-oxo-2H-1-benzopyran-4-yl)benzenepentanamide]	1100	96	
N=C(N)c1ccc(CCCCC(=O)N[C@H]2CC(=O)OC2c2nccs2)cc1 (single isomer, unassigned; diastereoisomer a) [Example 7, 4-(aminoiminomethyl)-N-[tetrahydro-5-oxo-2-(2-thiazolyl)-3S-furanyl]benzene pentanamide, bis(trifluoroacetate) (diastereoisomer A)]			> 10000
N=C(N)c1ccc(CCCCC(=O)N[C@H]2CC(=O)OC2c2ccccc2)cc1 (single isomer, unassigned; diastereoisomer b) [Example 5, 4-(aminoiminomethyl)-N-(tetrahydro-5-oxo-2-phenyl-3S-furanyl)benzenepentanamide, trifluoroacetate (diastereoisomer B)]			5100
N=C(N)c1ccc(CCCCC(=O)NC2CC(=O)OC2c2nccs2)cc1 (single isomer, unassigned; diastereoisomer b) [Example 8, 4-(aminoiminomethyl)-N-[tetrahydro-5-oxo-2-(2-thiazolyl)-3S-furanyl]benzene pentanamide, trifluoroacetate. (diastereoisomer B)]			> 10000
N=C(N)c1ccc(CCCCC(=O)N[C@H]2CC(=O)OC2c2ccccc2)cc1 (single isomer, unassigned; diastereomer a) [Example 4]		100	680
N=C(N)c1ccc(CCCCC(=O)N[C@@H]2COC(=O)C2)cc1 [Example 1, 4-(Aminoiminomethyl)-N-(5-oxo-3S-furanyl)benzenepentanamide]		44	
